Patent US4032544A, “3-Cyano-4-hydroxy coumarin derivatives” (Beecham Group Limited, priority 1974, dated 1977)

System: PCA response
Assay: rat Passive Cutaneous Anaphylaxis Test (PCA test)
Format: in vivo, rat (male Wistar)
Conditions: sc, subcutaneous, sodium salt
Protocol: The compounds prepared in the preceding examples were tested in the rat Passive Cutaneous Anaphylaxis Test (PCA test), described below. They were administered as their sodium salts either in pH 7.2 phosphate buffer (for soluble salts) or as a suspension in 1% methyl cellulose (for insoluble salts).
Male Wistar rats of 250-300 g, were injected intraperitoneally with 0.5 ml. of Bordatella pertussis vaccine (containing 4× 10^10 dead organism per ml) and subcutaneously with 0.5 ml. of an emulsion of 100 mg. of ovalbumin in 2 ml. of saline and 3 ml. of incomplete Freunds' adjuvant. Rats were bled by cardiac puncture on day 18, the blood was pooled and separated and serum stored at -20° and thawed only once before use.
0.1 ml. of each of six twofold serial dilutions of the serum in 0.9% saline were injected intradermally into separate sites on the shaved dorsal surface of 250-350 g. Male Wistar rats. 72 hours later the animals were challenged by i.v. injection of 0.3 ml. of 1% ovalbumin mixed with 0.1 ml. of a 5% solution of pontamine sky blue dye both in isotonic saline buffered with pH 7.2 Sorenson buffer (P.B.S.). The rats were killed after 20 minutes and the diameter of the blue wheals at the antibody injection sites were measured. The starting dilution of the serum was adjusted so that there was no response, after challenge, at the site of injection of the highest dilution and a maximum response at the two or three lowest dilutions.
Amounts of the compounds were administered to rats by subcutaneous injection, into the nucal region, of a solution of the compound in P.B.S. or as a suspension in 1% methyl cellulose, each amount a test group of six animals at a specified time prior to intravenous challenge with ovalbumin.
% Inhibition of P.C.A.= 100 (1 -a/b)
For those compounds having insoluble sodium salts, the salts were isolated by reaction of the free cyano compound with 2.5N sodium hydroxide and the filtered sodium salt washed free of alkali with water. The dried salts were then administered as a suspension in 1% methyl cellulose.

[1] = 0 h, 0 mins. prior to challenge
[2] = 0.5 h, 30 mins. prior to challenge
[3] = 10 min, 10 mins. prior to challenge
[4] = 1 h, 60 mins. prior to challenge

SMILES	inhibition in vivo at 25 mg/kg [1]	inhibition in vivo at 100 mg/kg [1]	inhibition in vivo at 25 mg/kg [2]	inhibition in vivo at 100 mg/kg [2]	inhibition in vivo at 10 mg/kg [3]	inhibition in vivo at 5 mg/kg [3]	inhibition in vivo at 20 mg/kg [3]	also measured
Cc1ccc2c(O)c(C#N)c(=O)oc2c1 [Example 14, 3-Cyano-4-hydroxy-7-methyl coumarin]	45%	74%	14%	18%	–	–	–	–
N#CC1C(=O)c2cc3ccccc3cc2C1=O [Example 6, 5,6-Benzo-2-cyano indan-1,3-dione]	–	–	27%	30%	–	–	–	inhibition in vivo at 25 mg/kg [3]: 88%; inhibition in vivo at 100 mg/kg [3]: 70%
N#Cc1c(O)c2cc3ccccc3cc2oc1=O [Example 17, 3-Cyano-4-hydroxy-2-oxo-2H-naphtho[2,3-b] pyran]	9%	15%	–	–	–	–	–	inhibition in vivo at 25 mg/kg [4]: 23%; inhibition in vivo at 100 mg/kg [4]: 18%
N#CC1C(=O)c2ccc(Cl)cc2C1=O (stereo not drawn) [Example 7, 5-Chloro-2-cyano indan-1,3-dione]	–	–	15%	–	33%	–	–	inhibition in vivo at 25 mg/kg [3]: 76%; inhibition in vivo at 10 mg/kg [2]: 21%
Cc1cc2c(cc1C)C(=O)C(C#N)C2=O [Example 3, 2-Cyano-5,6-dimethyl indan-1,3-dione]	–	–	–	–	77%	56%	92%	inhibition in vivo at 2.5 mg/kg [3]: 46%
COc1cccc2c1C(=O)C(C#N)C2=O (stereo not drawn) [Example 5, 2-Cyano-4-methoxy indan-1,3-dione]	–	–	–	–	16%	28%	57%	inhibition in vivo at 40 mg/kg [3]: 81%
Cc1ccc2oc(=O)c(C#N)c(O)c2c1 [Example 13, 3-Cyano-4-hydroxy-6-methyl coumarin]	14%	40%	21%	22%	–	–	–	–
Cc1ccc2c(c1)C(=O)C(C#N)C2=O (stereo not drawn) [Example 2, 2-Cyano-5-methyl indan-1,3-dione]	45%	76%	15%	35%	–	–	–	–
Cc1cccc2c(O)c(C#N)c(=O)oc12 [Example 19, 3-Cyano-4-hydroxy-8-methylcoumarin monohydrate]	48%	67%	23%	35%	–	–	–	–
CCOc1ccc2c(O)c(C#N)c(=O)oc2c1 [Example 16, 3-Cyano-7-ethyloxy-4-hydroxy coumarin monohydrate]	–	–	–	–	71%	59%	86%	inhibition in vivo at 40 mg/kg [3]: 73%
N#Cc1c(O)c2ccccc2oc1=O [Example 9, 3-Cyano-4-hydroxycoumarin]	64%	87%	30%	40%	–	–	–	–
N#CC1C(=O)c2ccccc2C1=O [Example 1, 2-Cyano indan-1,3-dione]	43%	64%	8%	16%	–	–	–	–
N#Cc1c(O)c2cc3c(cc2oc1=O)CCCC3 [Example 18, 3-Cyano-4-hydroxy-2-oxo-6,7,8,9-tetrahydro-2H-naphtho [2,3-b] pyran]	–	–	–	–	–	–	–	inhibition in vivo at 1 mg/kg (10 min, 1 mg/kg, 10 mins. prior to challenge): 2%; inhibition in vivo at 2 mg/kg (10 min, 2 mg/kg, 10 mins. prior to challenge): 22%; inhibition in vivo at 4 mg/kg (10 min, 4 mg/kg, 10 mins. prior to challenge): 52%; inhibition in vivo at 8 mg/kg (10 min, 8 mg/kg, 10 mins. prior to challenge): 67%
CCc1cc2oc(=O)c(C#N)c(O)c2cc1CC [Example 12, 3-Cyano-6,7-diethyl-4-hydroxy coumarin]	–	–	–	–	68%	72%	93%	inhibition in vivo at 2.5 mg/kg [3]: 64%
CCc1cc2c(cc1CC)C(=O)C(C#N)C2=O [Example 8, 2-Cyano-5,6-diethyl indan-1,3-dione]	–	–	–	–	90%	74%	78%	inhibition in vivo at 40 mg/kg [3]: 64%
COc1ccc2oc(=O)c(C#N)c(O)c2c1 [Example 20, 3-Cyano-4-hydroxy-6-methyloxycoumarin]	54%	72%	29%	36%	–	–	–	–
CCc1cc2c(O)c(C#N)c(=O)oc2cc1C [Example 10, 3-Cyano-6-ethyl-4-hydroxy-7-methyl coumarin]	–	–	17%	–	71%	–	–	inhibition in vivo at 25 mg/kg [3]: 67%; inhibition in vivo at 10 mg/kg [2]: 24%
CCc1ccc2c(O)c(C#N)c(=O)oc2c1 [Example 15, 3-Cyano-7-ethyl-4-hydroxy coumarin]	34%	64%	27%	17%	–	–	–	–
Cc1cc2oc(=O)c(C#N)c(O)c2cc1C [Example 11, 3-Cyano-6,7-dimethyl-4-hydroxycoumarin monohydrate]	51%	72%	16%	11%	–	–	–	–
Cc1cccc2c1C(=O)C(C#N)C2=O (stereo not drawn) [Example 4, 2-Cyano-4-methyl indan-1,3-dione]	–	–	–	–	25%	21%	75%	inhibition in vivo at 40 mg/kg [3]: 83%
Cc1ccc2c(O)c(C#N)c(=O)oc2c1C [Example 21, 3-Cyano-7,8-dimethyl-4-hydroxycoumarin monohydrate]	–	–	–	–	65%	39%	97%	inhibition in vivo at 2.5 mg/kg [3]: 20%
